Results from patent publication US4112228A, “7-(D-α-Hydroxy-2-arylacetamido)-3-(2-carboxyalkyl-2,3-dihydro-s-tri azolo-[4,3-b]pyridazin-3-on-6-ylthiomethyl)-3-cephem-4-carboxylic acids and derivatives” (priority 1977, dated 1978).
Converted amounts (≈) assume the structure as drawn. Read-outs that look alike come from different tables or passages of the source.

How the values were obtained:
[1] = system: E. cloacae A20464 (El-19); assay: Standard experimental infection in mice; assay type: in vivo; settings: Run C-811
Pr. vulgaris = assay: MIC by Steers' agar dilution method; settings: Proteus vulgaris
[2] = system: P. mirabilis A9900 (Pm-2); assay: Standard experimental infection (single sc treatment); settings: for No. of survivors/No. tested: Run C-810, 1×10^3 LD50, single sc
Shig. flexneri = assay: MIC by Steers' agar dilution method; assay type: cell-based; settings: Shigella flexneri, MHA
Ps. aeruginosa = assay: MIC by Steers' agar dilution method; settings: Pseudomonas aeruginosa
K. pneumoniae A9977 = assay: Standard experimental infection in mice; assay type: in vivo; settings: for ED50: Klebsiella pneumoniae, A9977, read-out: PD50
Serr. marcescens = assay: MIC by Steers' agar dilution method; settings: Serratia marcescens
[3] = strain not given (1st of 2), MHA, Example 10
[4] = strain not named (2nd of 2), MHA, Example 10

O=C(O)Cn1nc2ccc(SCC3=C(C(=O)O)N4C(=O)C(NC(=O)[C@H](O)c5ccccc5)[C@H]4SC3)nn2c1=O (stereo partly drawn) [BB-S488, 7-(D-Mandelamido)-3-(2-carboxymethyl-2,3-dihydro-s-triazolo[4,3-b]pyridazin-3-on-6-ylthiomethyl)-3-cephem-4-carboxylic Acid] was tested, and the ED50 ([1]; Enterobacter cloacae, read-out: PD50) was 0.54 mg/kg, the “No. of survivors/No. tested” value ([1]; 0.4 mg./kg.) was 2/5 and the “No. of survivors/No. tested” value ([1]; 1.6 mg./kg.) was 4/5. For the same compound, the “No. of survivors/No. tested” value ([1]; 6.3 mg./kg.) was 5/5, the “No. of survivors/No. tested” value ([1]; 25 mg./kg.) was 5/5 and the “No. of survivors/No. tested” value ([1]; 100 mg./kg.) was 5/5. It also gave an MIC (Pr. vulgaris; A9436, MHA, Table 1) of 0.1 µg/mL (≈ 0.175 µM), an MIC (Pr. vulgaris; A9699, MHA, Table 1) of 0.2 µg/mL (≈ 0.349 µM) and an MIC (Pr. vulgaris; ATCC9920, Pv-4 ATCC 9920, MHA, Table 3) of 0.1 µg/mL (≈ 0.175 µM). It also gave an MIC (Pr. vulgaris; Pv-1 A9436, HIA, Table 4) of 0.2 µg/mL (≈ 0.349 µM), an MIC (Pr. vulgaris; Pv-1 A9436, MHA, Table 3) of 0.2 µg/mL (≈ 0.349 µM) and an MIC (Pr. vulgaris; Pv-1 A9436, MHA, Table 4) of 0.1 µg/mL (≈ 0.175 µM). For the same compound, the MIC (Pr. vulgaris; Pv-1 A9436, NA, Table 4) was 0.2 µg/mL (≈ 0.349 µM), the MIC (Pr. vulgaris; Pv-2 A9526, MHA, Table 3) was 6.3 µg/mL (≈ 11 µM) and the MIC (Pr. vulgaris; Pv-3 A9699 (β-lactamase), HIA, Table 4) was 100 µg/mL (≈ 175 µM). For the same compound, the MIC (Pr. vulgaris; Pv-3 A9699 (β-lactamase), MHA, Table 4) was 0.8 µg/mL (≈ 1.4 µM), the MIC (Pr. vulgaris; Pv-3 A9699 (β-lactamase), NA, Table 4) was 0.8 µg/mL (≈ 1.4 µM) and the MIC (Pr. vulgaris; Pv-3 A9699, MHA, Table 3) was 6.3 µg/mL (≈ 11 µM). It also gave an MIC (Pr. vulgaris; Pv-5 A9539, MHA, Table 3) of 25 µg/mL (≈ 43.7 µM), an MIC (Pr. vulgaris; Pv-6 A9716, MHA, Table 3) of 0.1 µg/mL (≈ 0.175 µM) and an MIC (Pr. vulgaris; Pv-7 A21240, MHA, Table 3) of 25 µg/mL (≈ 43.7 µM). It also gave an MIC (Pr. vulgaris; [3]) of 0.1 µg/mL (≈ 0.175 µM), an MIC (Pr. vulgaris; [4]) of 0.8 µg/mL (≈ 1.4 µM) and an ED50 ([2]; Proteus mirabilis, in Mus musculus, sc, read-out: PD50) of 1.1 mg/kg. The “No. of survivors/No. tested” value ([2]; 0.1 mg./kg.) was 0/5, the “No. of survivors/No. tested” value ([2]; 0.4 mg./kg.) was 0/5 and the “No. of survivors/No. tested” value ([2]; 1.6 mg./kg.) was 4/5. For the same compound, the “No. of survivors/No. tested” value ([2]; 6.3 mg./kg.) was 5/5, the “No. of survivors/No. tested” value ([2]; 25 mg./kg.) was 5/5 and the MIC (Shig. flexneri; A9684, Table 1) was 12.5 µg/mL (≈ 21.8 µM). For the same compound, the MIC (Shig. flexneri; Example 10) was 25 µg/mL (≈ 43.7 µM), the MIC (Shig. flexneri; Sr-1 A9684, Table 3) was 12.5 µg/mL (≈ 21.8 µM) and the MIC (Ps. aeruginosa; A9843, MHA, Table 1) was greater than 100 µg/mL. The MIC (Ps. aeruginosa; A9930, MHA, Table 1) was greater than 100 µg/mL, the MIC (Ps. aeruginosa; Pa-3 A9930, HIA, Table 4) was greater than 100 µg/mL and the MIC (Ps. aeruginosa; Pa-3 A9930, MHA, Table 4) was greater than 100 µg/mL. The MIC (Ps. aeruginosa; Pa-3 A9930, NA, Table 4) was 100 µg/mL (≈ 175 µM), the MIC (Ps. aeruginosa; [3]) was greater than 100 µg/mL and the MIC (Ps. aeruginosa; [4]) was greater than 100 µg/mL. The “No. of survivors/No. tested” value (K. pneumoniae A9977; 0.1 mg./kg., Table 6) was 0/5, the “No. of survivors/No. tested” value (K. pneumoniae A9977; 0.4 mg./kg., Table 6) was 4/5 and the “No. of survivors/No. tested” value (K. pneumoniae A9977; 1.6 mg./kg., Table 6) was 5/5. The “No. of survivors/No. tested” value (K. pneumoniae A9977; 6.3 mg./kg., Table 6) was 5/5, the “No. of survivors/No. tested” value (K. pneumoniae A9977; 25 mg./kg., Table 6) was 5/5 and the ED50 (K. pneumoniae A9977; Run C-805, 3×10^3 LD50, single sc) was 0.26 mg/kg. The ED50 (K. pneumoniae A9977; Table 6) was 0.26 mg/kg, the “No. of survivors/No. tested” value (K. pneumoniae A9977; Run C-805, 3×10^3 LD50, single sc, 0.1 mg./kg.) was 0/5 and the “No. of survivors/No. tested” value (K. pneumoniae A9977; Run C-805, 3×10^3 LD50, single sc, 0.4 mg./kg.) was 4/5. The “No. of survivors/No. tested” value (K. pneumoniae A9977; Run C-805, 3×10^3 LD50, single sc, 1.6 mg./kg.) was 5/5, the “No. of survivors/No. tested” value (K. pneumoniae A9977; Run C-805, 3×10^3 LD50, single sc, 6.3 mg./kg.) was 5/5 and the “No. of survivors/No. tested” value (K. pneumoniae A9977; Run C-805, 3×10^3 LD50, single sc, 25 mg./kg.) was 5/5. For the same compound, the MIC (Serr. marcescens; A20019, MHA, Table 1) was 100 µg/mL (≈ 175 µM), the MIC (Serr. marcescens; MHA, Example 10) was greater than 100 µg/mL and the MIC (Serr. marcescens; Sm-1 A20019 (β-lactamase), HIA, Table 4) was greater than 100 µg/mL. For the same compound, the MIC (Serr. marcescens; Sm-1 A20019 (β-lactamase), MHA, Table 4) was greater than 100 µg/mL, the MIC (Serr. marcescens; Sm-1 A20019 (β-lactamase), NA, Table 4) was greater than 100 µg/mL and the MIC (Serr. marcescens; Sm-1 A20019, MHA, Table 3) was 25 µg/mL (≈ 43.7 µM). The MIC (Serr. marcescens; Sm-2 A20335, MHA, Table 3) was 3.1 µg/mL (≈ 5.41 µM), the MIC (Serr. marcescens; Sm-3 A20336, HIA, Table 4) was greater than 100 µg/mL and the MIC (Serr. marcescens; Sm-3 A20336, MHA, Table 3) was 6.3 µg/mL (≈ 11 µM). The MIC (Serr. marcescens; Sm-3 A20336, MHA, Table 4) was 0.8 µg/mL (≈ 1.4 µM), the MIC (Serr. marcescens; Sm-3 A20336, NA, Table 4) was 100 µg/mL (≈ 175 µM) and the MIC (Serr. marcescens; Sm-4 A20442, MHA, Table 3) was 6.3 µg/mL (≈ 11 µM). It also gave an MIC (Serr. marcescens; Sm-5 A20222, MHA, Table 3) of 3.1 µg/mL (≈ 5.41 µM), an MIC (Serr. marcescens; Sm-6 A20460, MHA, Table 3) of 6.3 µg/mL (≈ 11 µM) and an MIC (Serr. marcescens; Sm-9 A20333, MHA, Table 3) of 6.3 µg/mL (≈ 11 µM). It also gave an MIC (Serr. marcescens; Sm-10 A20334, MHA, Table 3) of 6.3 µg/mL (≈ 11 µM) and an MIC (Serr. marcescens; Sm-11 A20459, MHA, Table 3) of 6.3 µg/mL (≈ 11 µM).
